This is an account of results in patent US20250296916A1, “BICYCLIC PIPERAZINONES AND THERAPEUTIC USES THEREOF” (Cytokinetics, Inc., priority 2022, published 2025).

The subject of the test is rabbit skeletal myofibrils (approximately 90% fast fibers). The test can be described thus: Activation of fast skeletal myofibrils (PUMA coupled-enzyme ATPase assay). The conditions noted are these: concentration at which the compound increased the enzymatic activity by 40%; calcium at pCa25; PM12 buffer pH 6.8. It counts as biochemical. As to the method: Preparation of fast skeletal myofibrils: Rabbit skeletal myofibrils were prepared based upon the method of Herrmann et al. (Biochem. 32 (28): 7255-7263 (1993). Myofibrils were prepared from rabbit psoas muscle purchased from Pel-Freez Biologicals (Arkansas) within 2 days of ordering, stored on ice. Minced muscle was homogenized in 10 volumes of ice-cold “standard” buffer (50 mM Tris, pH 7.4, 0.1 M KOAc, 5 mM KCl, 2 mM dithiothreitol (DTT), 0.2 mM phenylmethylsulfonyl fluoride (PMSF), 10 μM leupeptin, 5 μM pepstatin, and 0.5 mM sodium azide) containing 5 mM ethylenediaminetetraacetic acid (EDTA) and 0.5% Triton X-100 using an Omni-Macro homogenizer. Myofibrils were recovered by low speed centrifugation (3000 rpm for 10 minutes) and washed 2 times in the Triton X-100 containing buffer to ensure removal of cellular membrane. Following the Triton washes, myofibrils were washed 3 times in “standard” buffer containing 2 mM magnesium acetate. A final wash in assay buffer (12 mM piperazine-1,4-bis(2-ethanesulfonic acid) (PIPES), pH 6.8, 60 mM KCl, 1 mM DTT) was performed and brought to 10% sucrose for flash freezing in liquid nitrogen and storage at −80° C.
Activation of Fast Skeletal Myofibrils: Fast fiber activators were identified by measuring the enzymatic activity of muscle myofibril preparations using the proprietary PUMA (trademark) (see, e.g., U.S. Pat. Nos. 6,410,254, 6,743,599, 7,202,051, and 7,378,254) assay system. Myofibril preparations consisted of rabbit skeletal muscle (approximately 90% fast fibers) that had been mechanically homogenized and washed with a detergent (Triton X-100) to remove cellular membranes. This preparation retained all of the sarcomeric components in a native conformation and the enzymatic activity was still regulated by calcium. Compounds were tested using a myofibril suspension and a level of calcium sufficient to increase enzymatic activity of the myofibrils to 25% of their maximal rate (termed pCa25). Enzymatic activity was tracked via a pyruvate kinase and lactate dehydrogenase-coupled enzyme system. This assay regenerates myosin-produced ADP into ATP by oxidizing NADH, producing an absorbance change at 340 nm. The buffering system was 12 mM PIPES, 2 mM MgCl2, 1 mM DTT at pH 6.8 (PM12 buffer). […] In Table 3, “Example Compound” refers to the compound labeled with the same number in Table 2.
For `CC[C@H](C)[C@H]1C(=O)Nc2ccccc2N1C(=O)c1ccc(=O)[nH]c1` [Compound 75, (S)-3-((S)-sec-butyl)-4-(6-oxo-1,6-dihydropyridine-3-carbonyl)-3,4-dihydroquinoxalin-2(1H)-one], the AC1.4 turned out to be 0.05 µM.

On to `CCC[C@H]1C(=O)Nc2ccccc2N1C(=O)c1ccc(OC(F)(F)F)nc1` [Compound 25, (S)-3-propyl-4-(6-(trifluoromethoxy)nicotinoyl)-3,4-dihydroquinoxalin-2(1H)-one], for which the AC1.4 amounted to 2.34 µM.

Turning to `CCC[C@H]1C(=O)Nc2ccccc2N1C(=O)c1ccc(NCc2ccccc2)nc1` [Compound 36, (S)-4-(6-(benzylamino)nicotinoyl)-3-propyl-3,4-dihydroquinoxalin-2(1H)-one], the AC1.4 was 0.65 µM.

With `CC[C@H](C)[C@H]1C(=O)Nc2ccccc2N1C(=O)N[C@H]1CCN(C)C1` [Compound 129, (S)-2-((S)-sec-butyl)-N-((S)-1-methylpyrrolidin-3-yl)-3-oxo-3,4-dihydroquinoxaline-1(2H)-carboxamide], the AC1.4 is 1.3 µM.

On to `CCC[C@H]1C(=O)Nc2ccccc2N1C(=O)Nc1cccc(F)c1` [Compound 57, (S)-N-(3-fluorophenyl)-3-oxo-2-propyl-3,4-dihydroquinoxaline-1(2H)-carboxamide], for which the AC1.4 stood at 0.24 µM.

Turning to `CC(C)[C@H]1C(=O)Nc2ccccc2N1C(=O)c1ccc(=O)n(C)c1` [Compound 81, (S)-3-isopropyl-4-(1-methyl-6-oxo-1,6-dihydropyridine-3-carbonyl)-3,4-dihydroquinoxalin-2(1H)-one], the AC1.4 was 0.22 µM.

In the case of `CC[C@H](C)[C@H]1C(=O)Nc2ccccc2N1C(=O)N[C@H]1C[C@H](O)C1` [Compound 132, (S)-2-((S)-sec-butyl)-N-((1R,3S)-3-hydroxycyclobutyl)-3-oxo-3,4-dihydroquinoxaline-1(2H)-carboxamide], the AC1.4 was 0.64 µM.

With `CCC[C@H]1C(=O)Nc2ccccc2N1C(=O)c1ccc(F)c(F)c1` [Compound 21, (S)-4-(3,4-difluorobenzoyl)-3-propyl-3,4-dihydroquinoxalin-2(1H)-one], the AC1.4 came to 0.07 µM.

Regarding `CCC[C@H]1C(=O)Nc2ccccc2N1C(=O)c1cnn(C2CC2)c1` [Compound 76, (S)-4-(1-cyclopropyl-1H-pyrazole-4-carbonyl)-3-propyl-3,4-dihydroquinoxalin-2(1H)-one], the AC1.4 was determined as 0.47 µM.

As for `CC(C)[C@H]1C(=O)Nc2cccnc2N1C(=O)c1ccc(=O)n(C)c1` [Compound 87, (S)-3-isopropyl-4-(1-methyl-6-oxo-1,6-dihydropyridine-3-carbonyl)-3,4-dihydropyrido[2,3-b]pyrazin-2(1H)-one], the AC1.4 was 2.15 µM.

As for `CC[C@H](C)[C@H]1C(=O)Nc2cnccc2N1C(=O)c1ccc(=O)[nH]c1` [Compound 90, (S)-2-((S)-sec-butyl)-1-(6-oxo-1,6-dihydropyridine-3-carbonyl)-1,4-dihydropyrido[3,4-b]pyrazin-3(2H)-one], the AC1.4 stood at 0.71 µM.

Take `CCC[C@H]1C(=O)Nc2ccccc2N1C(=O)c1ccc(NCC(F)(F)F)nc1` [Compound 34, (S)-3-propyl-4-(6-((2,2,2-trifluoroethyl)amino)nicotinoyl)-3,4-dihydroquinoxalin-2(1H)-one]: the AC1.4 stood at 2.59 µM.

Consider `CCC[C@H]1C(=O)Nc2ccccc2N1C(=O)c1cnn(CC2CC2)c1` [Compound 31, (S)-4-(1-(cyclopropylmethyl)-1H-pyrazole-4-carbonyl)-3-propyl-3,4-dihydroquinoxalin-2(1H)-one], for which the AC1.4 was 0.41 µM.

With `CCC[C@H]1C(=O)Nc2ccccc2N1C(=O)c1cc2cccn2cn1` [Compound 70, (S)-3-propyl-4-(pyrrolo[1,2-c]pyrimidine-3-carbonyl)-3,4-dihydroquinoxalin-2(1H)-one], the AC1.4 stood at 0.46 µM.

Regarding `CCC[C@H]1C(=O)Nc2ccccc2N1C(=O)c1ccc(N2CCCCCC2)nc1` [Compound 35, (S)-4-(6-(azepan-1-yl)nicotinoyl)-3-propyl-3,4-dihydroquinoxalin-2(1H)-one], the AC1.4 came out at 1.32 µM.

As to `CCC[C@H]1C(=O)Nc2ccccc2N1C(=O)c1ccncc1` [Compound 11, (S)-4-isonicotinoyl-3-propyl-3,4-dihydroquinoxalin-2(1H)-one], the AC1.4 amounted to 0.97 µM.

In the case of `CC[C@H](C)[C@H]1C(=O)Nc2cnccc2N1C(=O)c1ccc(=O)n(C)c1` [Compound 91, (S)-2-((S)-sec-butyl)-1-(1-methyl-6-oxo-1,6-dihydropyridine-3-carbonyl)-1,4-dihydropyrido[3,4-b]pyrazin-3(2H)-one], the AC1.4 turned out to be 0.72 µM.

Consider `CCC[C@H]1C(=O)Nc2ccccc2N1C(=O)c1cnn(CC)c1` [Compound 30, (S)-4-(1-ethyl-1H-pyrazole-4-carbonyl)-3-propyl-3,4-dihydroquinoxalin-2(1H)-one], for which the AC1.4 turned out to be 0.42 µM.

As to `CC(C)[C@H]1C(=O)Nc2ccccc2N1C(=O)c1ccc(=O)[nH]c1` [Compound 85, (S)-3-isopropyl-4-(6-oxo-1,6-dihydropyridine-3-carbonyl)-3,4-dihydroquinoxalin-2(1H)-one], the AC1.4 was found to be 0.15 µM.

Take `CC[C@H](C)[C@H]1C(=O)Nc2cccnc2N1C(=O)c1cnn(C)c1` [Compound 93, (S)-3-((S)-sec-butyl)-4-(1-methyl-1H-pyrazole-4-carbonyl)-3,4-dihydropyrido[2,3-b]pyrazin-2(1H)-one]: the AC1.4 worked out at 1.73 µM.

With `CC(C)C[C@H]1C(=O)Nc2cnccc2N1C(=O)c1cnn(C)c1` [Compound 96, (S)-2-isobutyl-1-(1-methyl-1H-pyrazole-4-carbonyl)-1,4-dihydropyrido[3,4-b]pyrazin-3(2H)-one], the AC1.4 amounted to 0.6 µM.

Take `CCC[C@H]1C(=O)Nc2ccccc2N1C(=O)Nc1cccc(OC)c1` [Compound 54, (S)-N-(3-methoxyphenyl)-3-oxo-2-propyl-3,4-dihydroquinoxaline-1(2H)-carboxamide]: the AC1.4 worked out at 0.31 µM.

On to `CC[C@H](C)[C@H]1C(=O)Nc2cncnc2N1C(=O)c1cnn(C)c1` [Compound 94, (S)-7-((S)-sec-butyl)-8-(1-methyl-1H-pyrazole-4-carbonyl)-7,8-dihydropteridin-6(5H)-one], for which the AC1.4 was 1.66 µM.

With `CCC[C@H]1C(=O)Nc2ccccc2N1C(=O)c1ccc(N2CCC(F)(F)C2)nc1` [Compound 43, (S)-4-(6-(3,3-difluoropyrrolidin-1-yl)nicotinoyl)-3-propyl-3,4-dihydroquinoxalin-2(1H)-one], the AC1.4 was 2.78 µM.

With `CC[C@H](C)[C@H]1C(=O)Nc2cnccc2N1C(=O)c1cccc(C)c1` [Compound 98, (S)-2-((S)-sec-butyl)-1-(3-methylbenzoyl)-1,4-dihydropyrido[3,4-b]pyrazin-3(2H)-one], the AC1.4 turned out to be 0.13 µM.

Turning to `CC[C@H](C)[C@H]1C(=O)Nc2ccccc2N1C(=O)N1CC(O)C1` [Compound 101, (S)-3-((S)-sec-butyl)-4-(3-hydroxyazetidine-1-carbonyl)-3,4-dihydroquinoxalin-2(1H)-one], the AC1.4 was 2.1 µM.

For the compound `CC[C@H](C)[C@H]1C(=O)Nc2ccccc2N1C(=O)CO` [Compound 109, (S)-3-((S)-sec-butyl)-4-(2-hydroxyacetyl)-3,4-dihydroquinoxalin-2(1H)-one], the AC1.4 amounted to 1.51 µM.

Take `CC[C@H](C)[C@H]1C(=O)Nc2ccccc2N1C(=O)N1CC[C@@H](CO)C1` [Compound 108, (S)-3-((S)-sec-butyl)-4-((R)-3-(hydroxymethyl)pyrrolidine-1-carbonyl)-3,4-dihydroquinoxalin-2(1H)-one]: the AC1.4 was 2.77 µM.

In the case of `CCC[C@H]1C(=O)Nc2ccccc2N1C(=O)c1cn(C)nc1C` [Compound 45, (S)-4-(1,3-dimethyl-1H-pyrazole-4-carbonyl)-3-propyl-3,4-dihydroquinoxalin-2(1H)-one], the AC1.4 was determined as 0.2 µM.

Regarding `CCC[C@H]1C(=O)Nc2ccccc2N1C(=O)Nc1cnn(C)c1` [Compound 59, (S)-N-(1-methyl-1H-pyrazol-4-yl)-3-oxo-2-propyl-3,4-dihydroquinoxaline-1(2H)-carboxamide], the AC1.4 amounted to 1.96 µM.

For `CC[C@H](C)[C@H]1C(=O)Nc2ccccc2N1C(=O)c1cnn(C)c1` [Compound 63, (S)-3-((S)-sec-butyl)-4-(1-methyl-1H-pyrazole-4-carbonyl)-3,4-dihydroquinoxalin-2(1H)-one], the AC1.4 came to 0.04 µM.

With `CCC[C@H]1C(=O)Nc2cccc(Br)c2N1C(=O)c1ccc(Cl)nc1` [Compound 4, (S)-5-bromo-4-(6-chloronicotinoyl)-3-propyl-3,4-dihydroquinoxalin-2(1H)-one], the AC1.4 was 0.72 µM.
